According to ChEMBL document CHEMBL5291721, “A preclinical secondary pharmacology resource illuminates target-adverse drug reaction associations of marketed drugs” (Nat Commun, 2023):

Experiments:
Vasopressin V2 receptor = Vasopressin V2 receptor (Homo sapiens, UniProt P30518)
Vasopressin V1a receptor = Vasopressin V1a receptor (Homo sapiens, UniProt P37288)
[1] = molecular target: 5-hydroxytryptamine receptor 2A (Homo sapiens, UniProt P28223); type: functional, cell-based
[2] = molecular target: T1, Alpha-1A adrenergic receptor (Homo sapiens, UniProt P35348); type: functional, cell-based
T1 sequence (P35348 whole entry): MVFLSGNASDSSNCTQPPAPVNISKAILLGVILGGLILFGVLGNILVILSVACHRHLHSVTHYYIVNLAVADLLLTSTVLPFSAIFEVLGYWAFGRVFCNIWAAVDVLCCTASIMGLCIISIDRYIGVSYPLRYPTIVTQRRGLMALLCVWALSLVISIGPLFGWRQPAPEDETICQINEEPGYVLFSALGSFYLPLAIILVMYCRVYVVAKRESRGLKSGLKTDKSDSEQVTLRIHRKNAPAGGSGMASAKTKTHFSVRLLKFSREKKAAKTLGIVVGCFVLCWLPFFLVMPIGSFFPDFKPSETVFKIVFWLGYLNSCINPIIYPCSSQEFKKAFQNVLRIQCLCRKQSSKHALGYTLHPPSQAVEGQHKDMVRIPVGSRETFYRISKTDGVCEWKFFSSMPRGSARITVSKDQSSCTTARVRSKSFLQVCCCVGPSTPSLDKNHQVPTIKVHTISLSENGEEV

Cannabinoid receptor 1 [3] = molecular target: T2, Cannabinoid receptor 1 (Homo sapiens, UniProt P21554)
T2 sequence (P21554 whole entry): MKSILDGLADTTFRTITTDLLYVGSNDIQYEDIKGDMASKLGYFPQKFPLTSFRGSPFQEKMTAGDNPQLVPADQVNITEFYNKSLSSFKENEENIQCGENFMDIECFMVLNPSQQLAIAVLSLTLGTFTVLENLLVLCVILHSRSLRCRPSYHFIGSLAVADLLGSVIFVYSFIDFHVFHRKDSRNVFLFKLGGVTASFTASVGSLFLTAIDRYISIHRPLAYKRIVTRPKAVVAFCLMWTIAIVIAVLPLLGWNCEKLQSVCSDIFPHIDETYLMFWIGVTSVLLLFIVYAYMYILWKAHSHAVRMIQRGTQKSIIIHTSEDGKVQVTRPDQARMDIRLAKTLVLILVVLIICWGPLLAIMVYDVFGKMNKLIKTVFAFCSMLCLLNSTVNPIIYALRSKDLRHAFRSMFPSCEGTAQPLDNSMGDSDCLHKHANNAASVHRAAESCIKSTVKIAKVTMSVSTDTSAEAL

[4] = molecular target: T3, Alpha-2A adrenergic receptor (Homo sapiens, UniProt P08913)
T3 sequence (P08913 whole entry): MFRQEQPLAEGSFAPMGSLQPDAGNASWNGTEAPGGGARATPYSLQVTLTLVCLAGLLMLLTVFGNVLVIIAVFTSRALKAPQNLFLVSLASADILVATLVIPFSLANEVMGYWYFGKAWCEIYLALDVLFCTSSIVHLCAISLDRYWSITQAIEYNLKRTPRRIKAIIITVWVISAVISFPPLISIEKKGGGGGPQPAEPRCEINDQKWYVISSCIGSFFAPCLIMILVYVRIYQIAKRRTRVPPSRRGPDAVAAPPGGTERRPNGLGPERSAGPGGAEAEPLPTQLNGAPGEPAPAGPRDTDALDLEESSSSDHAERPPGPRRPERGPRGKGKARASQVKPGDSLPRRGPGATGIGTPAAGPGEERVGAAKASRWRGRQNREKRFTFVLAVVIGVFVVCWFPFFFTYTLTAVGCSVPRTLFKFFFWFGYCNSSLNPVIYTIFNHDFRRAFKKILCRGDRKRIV

Mu-type opioid receptor [5] = molecular target: T4, Mu-type opioid receptor (Homo sapiens, UniProt P35372); test: biochemical; type: functional
T4 sequence (P35372 whole entry): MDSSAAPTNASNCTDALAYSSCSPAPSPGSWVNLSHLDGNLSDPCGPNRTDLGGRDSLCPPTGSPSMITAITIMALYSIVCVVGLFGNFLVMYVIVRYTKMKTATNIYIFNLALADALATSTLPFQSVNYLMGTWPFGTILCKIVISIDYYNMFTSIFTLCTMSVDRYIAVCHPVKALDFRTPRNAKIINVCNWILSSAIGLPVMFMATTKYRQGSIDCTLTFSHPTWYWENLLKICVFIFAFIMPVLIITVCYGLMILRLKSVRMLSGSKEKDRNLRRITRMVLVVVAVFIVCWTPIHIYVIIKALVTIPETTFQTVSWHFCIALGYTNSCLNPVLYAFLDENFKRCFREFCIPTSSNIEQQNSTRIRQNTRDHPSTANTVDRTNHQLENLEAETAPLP

[6] = molecular target: Beta-1 adrenergic receptor (Homo sapiens, UniProt P08588); type: functional
Mu-type opioid receptor [7] = molecular target: T4, Mu-type opioid receptor
[8] = molecular target: 5-hydroxytryptamine receptor 2B (Homo sapiens, UniProt P41595); type: functional, cell-based
[9] = molecular target: Muscarinic acetylcholine receptor M3 (Homo sapiens, UniProt P20309)
Chain of Muscarinic acetylcholine receptor M3 (P20309 whole entry): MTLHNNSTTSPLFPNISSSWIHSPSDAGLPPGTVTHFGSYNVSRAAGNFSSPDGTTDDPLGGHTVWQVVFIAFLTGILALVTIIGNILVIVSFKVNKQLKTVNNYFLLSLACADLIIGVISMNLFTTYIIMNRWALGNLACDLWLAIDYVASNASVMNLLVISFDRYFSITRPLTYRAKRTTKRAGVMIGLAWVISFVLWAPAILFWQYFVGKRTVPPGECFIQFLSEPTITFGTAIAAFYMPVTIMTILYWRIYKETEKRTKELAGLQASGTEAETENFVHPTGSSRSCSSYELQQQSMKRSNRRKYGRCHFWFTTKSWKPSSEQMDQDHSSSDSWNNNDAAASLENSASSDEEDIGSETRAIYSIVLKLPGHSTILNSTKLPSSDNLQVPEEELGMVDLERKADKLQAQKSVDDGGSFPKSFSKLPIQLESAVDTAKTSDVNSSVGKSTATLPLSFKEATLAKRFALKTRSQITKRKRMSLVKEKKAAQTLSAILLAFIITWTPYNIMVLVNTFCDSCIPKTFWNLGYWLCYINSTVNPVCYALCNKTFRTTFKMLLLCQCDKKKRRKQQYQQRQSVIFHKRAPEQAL

D(1A) dopamine receptor = D(1A) dopamine receptor (Homo sapiens, UniProt P21728)
Chain of D(1A) dopamine receptor (P21728 whole entry): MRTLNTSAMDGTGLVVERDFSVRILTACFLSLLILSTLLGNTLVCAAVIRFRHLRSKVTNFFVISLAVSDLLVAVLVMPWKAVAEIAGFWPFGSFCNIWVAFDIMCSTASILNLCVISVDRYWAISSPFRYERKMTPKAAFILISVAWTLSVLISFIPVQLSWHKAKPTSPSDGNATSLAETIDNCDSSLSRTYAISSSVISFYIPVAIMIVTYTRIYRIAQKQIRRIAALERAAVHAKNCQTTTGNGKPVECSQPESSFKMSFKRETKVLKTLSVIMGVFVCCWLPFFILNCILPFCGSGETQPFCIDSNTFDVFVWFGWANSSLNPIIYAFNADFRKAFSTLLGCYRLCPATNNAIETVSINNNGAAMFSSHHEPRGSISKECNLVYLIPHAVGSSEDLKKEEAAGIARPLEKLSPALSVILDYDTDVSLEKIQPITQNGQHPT

D(3) dopamine receptor = D(3) dopamine receptor (Homo sapiens, UniProt P35462)
Chain of D(3) dopamine receptor (P35462 whole entry): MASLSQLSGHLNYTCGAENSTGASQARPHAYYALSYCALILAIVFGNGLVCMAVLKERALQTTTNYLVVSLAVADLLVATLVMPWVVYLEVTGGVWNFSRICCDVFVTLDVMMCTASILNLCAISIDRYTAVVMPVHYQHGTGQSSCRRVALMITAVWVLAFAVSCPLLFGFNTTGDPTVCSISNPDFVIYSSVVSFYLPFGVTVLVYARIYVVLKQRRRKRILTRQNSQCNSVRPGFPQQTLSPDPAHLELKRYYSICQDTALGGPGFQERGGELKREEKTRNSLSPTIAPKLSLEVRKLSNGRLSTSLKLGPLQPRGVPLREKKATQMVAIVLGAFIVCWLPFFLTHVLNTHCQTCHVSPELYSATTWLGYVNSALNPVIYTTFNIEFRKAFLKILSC

Thromboxane A2 receptor = molecular target: T5, Thromboxane A2 receptor (Homo sapiens, UniProt P21731)
T5 sequence (P21731 whole entry): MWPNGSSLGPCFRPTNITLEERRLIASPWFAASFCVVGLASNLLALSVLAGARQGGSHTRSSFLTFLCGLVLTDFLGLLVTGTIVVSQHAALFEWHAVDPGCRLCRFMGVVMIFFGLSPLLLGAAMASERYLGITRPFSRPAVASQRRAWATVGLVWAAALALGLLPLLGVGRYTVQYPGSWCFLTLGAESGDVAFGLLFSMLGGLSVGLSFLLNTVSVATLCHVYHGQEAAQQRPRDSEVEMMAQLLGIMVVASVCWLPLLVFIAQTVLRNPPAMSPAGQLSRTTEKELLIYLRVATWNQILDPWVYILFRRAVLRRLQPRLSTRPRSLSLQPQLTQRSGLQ

[10] = molecular target: Sodium-dependent serotonin transporter (Homo sapiens, UniProt P31645)
Cannabinoid receptor 1 [11] = molecular target: T2, Cannabinoid receptor 1; type: functional, cell-based
[12] = molecular target: Prostaglandin G/H synthase 1 (Homo sapiens, UniProt P23219); type: functional
Chain of Prostaglandin G/H synthase 1 (P23219 whole entry): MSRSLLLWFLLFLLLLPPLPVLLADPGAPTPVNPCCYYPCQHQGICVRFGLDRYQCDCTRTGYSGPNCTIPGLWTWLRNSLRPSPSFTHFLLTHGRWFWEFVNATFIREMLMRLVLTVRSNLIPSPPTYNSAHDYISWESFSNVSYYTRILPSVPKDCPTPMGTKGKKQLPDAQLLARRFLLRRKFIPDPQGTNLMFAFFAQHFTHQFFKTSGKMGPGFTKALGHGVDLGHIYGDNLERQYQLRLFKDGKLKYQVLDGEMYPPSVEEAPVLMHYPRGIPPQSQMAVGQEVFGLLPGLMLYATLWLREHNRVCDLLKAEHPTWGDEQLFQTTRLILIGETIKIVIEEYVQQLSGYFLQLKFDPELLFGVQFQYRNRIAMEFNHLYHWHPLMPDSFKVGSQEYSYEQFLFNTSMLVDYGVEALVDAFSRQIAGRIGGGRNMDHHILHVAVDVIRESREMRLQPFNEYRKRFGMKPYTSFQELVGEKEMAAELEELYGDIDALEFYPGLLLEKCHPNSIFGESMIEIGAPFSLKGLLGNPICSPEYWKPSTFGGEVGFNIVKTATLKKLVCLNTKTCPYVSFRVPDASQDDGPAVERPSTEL

[13] = molecular target: Glutamate receptor ionotropic, NMDA 1 (Rattus norvegicus, UniProt P35439)
[14] = molecular target: Kappa-type opioid receptor (Homo sapiens, UniProt P41145)
Chain of Kappa-type opioid receptor (P41145 whole entry): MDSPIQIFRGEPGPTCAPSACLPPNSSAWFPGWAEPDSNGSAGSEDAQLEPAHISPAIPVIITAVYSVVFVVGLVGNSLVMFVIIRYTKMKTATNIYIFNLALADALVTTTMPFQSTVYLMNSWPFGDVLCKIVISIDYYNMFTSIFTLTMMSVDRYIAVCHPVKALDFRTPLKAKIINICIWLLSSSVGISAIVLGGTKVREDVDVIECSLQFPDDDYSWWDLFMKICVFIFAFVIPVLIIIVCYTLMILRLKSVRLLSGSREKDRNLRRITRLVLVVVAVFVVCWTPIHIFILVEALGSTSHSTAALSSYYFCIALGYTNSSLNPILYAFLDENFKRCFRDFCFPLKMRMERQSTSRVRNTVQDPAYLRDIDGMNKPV

Acetylcholinesterase = Acetylcholinesterase (Homo sapiens, UniProt P22303); type: functional
Chain of Acetylcholinesterase (P22303 whole entry): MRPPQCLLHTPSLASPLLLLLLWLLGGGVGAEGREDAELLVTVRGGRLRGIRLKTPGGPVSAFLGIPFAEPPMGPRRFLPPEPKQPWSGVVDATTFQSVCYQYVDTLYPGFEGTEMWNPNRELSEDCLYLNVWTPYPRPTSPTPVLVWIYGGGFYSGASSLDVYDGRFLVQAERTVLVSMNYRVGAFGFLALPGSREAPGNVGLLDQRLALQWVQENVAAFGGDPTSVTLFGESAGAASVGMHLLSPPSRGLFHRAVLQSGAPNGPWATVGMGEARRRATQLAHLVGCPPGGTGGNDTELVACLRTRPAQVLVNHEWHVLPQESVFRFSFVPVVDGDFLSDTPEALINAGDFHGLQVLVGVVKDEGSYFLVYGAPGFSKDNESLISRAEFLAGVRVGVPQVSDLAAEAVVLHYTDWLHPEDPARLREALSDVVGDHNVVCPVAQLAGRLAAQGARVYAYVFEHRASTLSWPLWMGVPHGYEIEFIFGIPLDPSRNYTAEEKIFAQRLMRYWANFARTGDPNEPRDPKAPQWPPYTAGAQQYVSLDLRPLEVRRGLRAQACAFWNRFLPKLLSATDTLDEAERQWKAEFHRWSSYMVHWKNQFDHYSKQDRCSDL

[15] = molecular target: Vascular endothelial growth factor receptor 2 (Homo sapiens, UniProt P35968); type: functional
Estrogen receptor = molecular target: T6, Estrogen receptor (Homo sapiens, UniProt P03372)
T6 sequence (P03372 whole entry): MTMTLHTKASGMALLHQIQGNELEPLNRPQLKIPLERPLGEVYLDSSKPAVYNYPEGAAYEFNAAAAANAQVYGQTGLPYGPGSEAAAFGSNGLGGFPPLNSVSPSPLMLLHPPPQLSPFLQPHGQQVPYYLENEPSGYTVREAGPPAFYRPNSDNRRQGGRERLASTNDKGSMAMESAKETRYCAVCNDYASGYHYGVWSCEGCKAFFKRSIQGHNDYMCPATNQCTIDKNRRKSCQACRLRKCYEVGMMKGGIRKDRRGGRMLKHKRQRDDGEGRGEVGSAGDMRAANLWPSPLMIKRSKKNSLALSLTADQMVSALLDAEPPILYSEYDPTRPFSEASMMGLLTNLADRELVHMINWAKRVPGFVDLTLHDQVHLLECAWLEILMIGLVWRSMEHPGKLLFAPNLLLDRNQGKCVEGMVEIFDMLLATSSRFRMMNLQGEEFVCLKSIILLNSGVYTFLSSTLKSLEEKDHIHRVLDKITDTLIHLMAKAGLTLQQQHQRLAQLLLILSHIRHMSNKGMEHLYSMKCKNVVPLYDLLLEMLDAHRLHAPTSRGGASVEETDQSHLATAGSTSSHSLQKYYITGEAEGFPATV
Also: assay procedure not described here.

Chain of Vasopressin V1a receptor (P37288 whole entry): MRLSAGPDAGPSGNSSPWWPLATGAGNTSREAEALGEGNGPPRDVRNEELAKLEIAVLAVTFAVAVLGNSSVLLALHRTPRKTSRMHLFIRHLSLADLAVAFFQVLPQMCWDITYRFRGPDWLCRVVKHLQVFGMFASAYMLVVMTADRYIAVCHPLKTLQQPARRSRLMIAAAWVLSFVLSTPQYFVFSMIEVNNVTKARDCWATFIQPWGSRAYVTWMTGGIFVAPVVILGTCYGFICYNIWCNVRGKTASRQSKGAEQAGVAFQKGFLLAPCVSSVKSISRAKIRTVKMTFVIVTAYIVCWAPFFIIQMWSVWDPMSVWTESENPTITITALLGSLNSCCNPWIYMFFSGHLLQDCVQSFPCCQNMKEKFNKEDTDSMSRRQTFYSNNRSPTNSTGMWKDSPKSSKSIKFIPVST
Chain of 5-hydroxytryptamine receptor 2A (P28223 whole entry): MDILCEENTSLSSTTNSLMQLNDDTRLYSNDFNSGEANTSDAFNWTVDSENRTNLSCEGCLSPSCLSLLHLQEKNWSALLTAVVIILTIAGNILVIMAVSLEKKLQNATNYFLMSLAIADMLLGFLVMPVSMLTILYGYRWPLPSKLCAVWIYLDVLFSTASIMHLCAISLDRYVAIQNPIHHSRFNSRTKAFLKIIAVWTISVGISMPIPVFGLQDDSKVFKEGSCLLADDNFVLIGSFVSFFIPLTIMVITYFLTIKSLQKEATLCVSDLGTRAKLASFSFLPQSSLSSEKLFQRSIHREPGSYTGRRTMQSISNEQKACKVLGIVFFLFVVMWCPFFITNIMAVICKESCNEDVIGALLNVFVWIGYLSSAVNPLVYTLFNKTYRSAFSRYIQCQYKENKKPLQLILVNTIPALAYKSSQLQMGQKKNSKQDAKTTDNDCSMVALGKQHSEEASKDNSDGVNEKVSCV

**Q.** For CN(CCOc1ccc(NS(C)(=O)=O)cc1)CCc1ccc(NS(C)(=O)=O)cc1 [DOFETILIDE], which AC50 (Vasopressin V2 receptor) is on record?
**A.** > 30 µM

**Q.** And the AC50 (Vasopressin V1a receptor)?
**A.** > 10 µM

**Q.** And the AC50 [1]?
**A.** > 30 µM

**Q.** What about the AC50 [2] of the same compound?
**A.** > 30 µM

**Q.** And the AC50 (Cannabinoid receptor 1 [3])?
**A.** > 10 µM

**Q.** What about the AC50 [4] of the same compound?
**A.** > 30 µM

**Q.** What about the AC50 (Mu-type opioid receptor [5]) of the same compound?
**A.** > 30 µM

**Q.** What about the AC50 [6] of the same compound?
**A.** > 10 µM

**Q.** And the AC50 (Mu-type opioid receptor [7])?
**A.** > 30 µM

**Q.** What about the AC50 [8] of the same compound?
**A.** > 30 µM

**Q.** And the AC50 [9]?
**A.** > 10 µM

**Q.** And the AC50 (D(1A) dopamine receptor)?
**A.** > 30 µM

**Q.** What about the AC50 (D(3) dopamine receptor) of the same compound?
**A.** 3.36 µM

**Q.** And the AC50 (Thromboxane A2 receptor)?
**A.** > 30 µM

**Q.** What about the AC50 [10] of the same compound?
**A.** > 10 µM

**Q.** What about the AC50 (Cannabinoid receptor 1 [11]) of the same compound?
**A.** > 30 µM

**Q.** And the AC50 [12]?
**A.** > 30 µM

**Q.** What about the AC50 [13] of the same compound?
**A.** > 10 µM

**Q.** And the AC50 [14]?
**A.** > 10 µM

**Q.** What about the AC50 (Acetylcholinesterase) of the same compound?
**A.** 13.6 µM

**Q.** And the AC50 [15]?
**A.** > 30 µM

**Q.** What about the AC50 (Estrogen receptor) of the same compound?
**A.** > 30 µM
